How the values were obtained:
[1] = target: T1, TRβ (Homo sapiens, UniProt P10828); assay: Gel retardation DNA-binding assay with TRβ-expressing COS cell extracts; set-up: expressed in transfected cells; host or cells: COS cells (whole-cell extract); conditions: for competition for TRβ binding (mobility shift assay): unlabeled competitor oligonucleotide, COS cells expressing TRβ; for TRβ binding to labeled oligonucleotide probe: gel retardation, TRβ COS cell extract
T1 sequence (P10828 1-461): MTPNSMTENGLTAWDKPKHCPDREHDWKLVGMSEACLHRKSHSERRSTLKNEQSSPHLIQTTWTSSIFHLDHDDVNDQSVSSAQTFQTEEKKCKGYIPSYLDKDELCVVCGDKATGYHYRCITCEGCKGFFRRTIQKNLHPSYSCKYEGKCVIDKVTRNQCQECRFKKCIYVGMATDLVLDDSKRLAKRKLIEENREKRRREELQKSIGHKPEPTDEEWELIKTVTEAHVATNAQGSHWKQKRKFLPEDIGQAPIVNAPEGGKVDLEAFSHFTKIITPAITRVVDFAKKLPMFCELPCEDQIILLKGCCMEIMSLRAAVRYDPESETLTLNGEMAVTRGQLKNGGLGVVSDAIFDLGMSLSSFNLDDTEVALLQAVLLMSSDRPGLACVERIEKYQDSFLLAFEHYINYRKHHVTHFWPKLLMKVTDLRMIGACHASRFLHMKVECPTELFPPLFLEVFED
Summary of the method: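 Extracts of COS cells transfected with pCMX TRβ expression plasmid, 48 h post-transfection; 5 μg protein pre-incubated on ice 20 min with poly dI/dC, then 40 fmole 32P-labelled oligonucleotide 30 min at room temperature. Complexes resolved on 5% polyacrylamide gel.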

[2] = target: T2, RARα (Homo sapiens, UniProt P10276); assay: Gel retardation DNA-binding assay with RARα-expressing COS cell extracts; set-up: expressed in transfected cells; host or cells: COS cells (whole-cell extract); conditions: unlabeled competitor oligonucleotide; COS cell extracts
T2 sequence (P10276 1-462): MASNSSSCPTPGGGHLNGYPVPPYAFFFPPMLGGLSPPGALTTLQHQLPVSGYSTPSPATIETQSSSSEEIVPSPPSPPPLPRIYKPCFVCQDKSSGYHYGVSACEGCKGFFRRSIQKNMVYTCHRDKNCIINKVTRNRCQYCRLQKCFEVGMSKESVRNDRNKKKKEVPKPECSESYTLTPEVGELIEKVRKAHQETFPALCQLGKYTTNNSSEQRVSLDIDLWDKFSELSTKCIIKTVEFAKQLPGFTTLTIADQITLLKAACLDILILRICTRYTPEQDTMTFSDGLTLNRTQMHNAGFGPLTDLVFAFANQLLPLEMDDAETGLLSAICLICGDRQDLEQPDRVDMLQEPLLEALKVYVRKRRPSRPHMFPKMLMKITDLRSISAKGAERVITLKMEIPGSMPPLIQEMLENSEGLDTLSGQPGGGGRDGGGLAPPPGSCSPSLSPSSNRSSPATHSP
Protocol: For DNA binding assays, COS cells were cultured in DMEM with 10% calf bovine serum and transfected by the calcium phosphate method with 20 μg of the pCMX receptor expression plasmid for 6 hours followed by a glycerol shock. After incubating the transfected COS cells for another 48 hours, the cells were harvested to prepare extracts for the DNA binding assay, carried out as described by Damm et al., Nature 339: 593-597 (1989). The extracts were made in 20 mM HEPES (pH 7.4), 0.4 M KCl, 2 mM DTT and 20% glycerol. A similar method was employed to prepare a whole cell extract from F9 stem cells. For the binding, 5 μg (COS) or 10 μg (F9) of proteins was incubated on ice for 20 minutes, first in 20 mM HEPES, 80 mM KCl, 1 mM DTT, 0.1% NP40, 2.5 μg of poly dI/dC, and 10% glycerol (cold competitor oligonucleotides, when included, were added during this pre-incubation period). Then 40 fmole of ^32P-labeled oligonucleotide probe (1-2×10^5 cpm, prepared by filling-in reaction using Klenow polymerase in the presence of α-^32P-dCTP) was added to the reaction mixture, followed by incubation at room temperature for 30 minutes. The receptor-DNA complexes were resolved by electrophoresis through 5% polyacrylamide gel containing 5% glycerol at 6 V/cm at room temperature.
Oligonucleotides listed in FIG. 3 were used as a probe to test specific DNA-binding of the RARα and TRβ in a gel retardation assay. On the βRARE, a faint background binding activity was detected in the mock transfected COS cell extract. […] In each case the result obtained from in vivo transactivation and in vitro DNA binding are consistent.
Using the mobility shift assay, the DNA-binding capacity of extracts from COS cells expressing TRβ and RARα to these sequences was also tested. […] This pattern is consistent with that of the in vivo activation (FIG. 4). A reciprocal pattern was obtained when the same oligonucleotides were used to compete RARα binding to the ^32P-labeled βRARE. […] This provides a striking example of the role of half-site spacing in generating a functional response element.

Substance | competition for TRβ binding (mobility shift assay) [1] | competition for RARα binding to 32P-labeled βRARE [2] | competition for TRβ binding to 32P-labeled MHC-N ([1]; 50-fold excess of unlabeled oligonucleotide, COS cell extracts) | TRβ binding to labeled oligonucleotide probe [1] | TRβ binding to labeled oligonucleotide probe ([1]; listed as MHC-TRE)
TREp: optimized palindromic rat growth hormone TRE (SEQ ID NO:10) (AGCTTCAGGTCATGACCTGAGAGCT; DNA, backbone not given here; double-stranded response element with agct overhangs, cloned into reporter plasmid) [reference compound] | efficient competition | effective competitors |  |  | 
MHC-N: 23-nucleotide core of the wild-type sequence (MHC-TRE) (SEQ ID NO:14) (AGCTGGAGGTGACAGGAGGACAGCAAGCT; DNA, backbone not given here; further chemistry not fully specified) | efficient competition | fails to compete at all | competed | specific binding | high affinity

— US6492137B1, “Response element compositions and assays employing same” (The Salk Institute for Biological Studies, priority 1989, dated 2002)
